Reference: patent US7351739B2, “Bioactive compounds and methods of uses thereof” (Wellgen, Inc., priority 2004, dated 2008)

Key:
JB6 C141 cells = assay: Anchorage-independent (soft agar) neoplastic cell transformation assay, EGF-exposed; type: cell-based, mouse
Experimental: (§1) Cell cultures: The JB6 mouse epidermal cell line Cl 41 or its stable AP-1 luciferase reporter plasmid stable transfectant was maintained with Eagles minimal essential medium (MEM), containing 5% fetal bovine serum (FBS), 2 mM L-glutamine and […] gentamicin or 50 IU/ml penicillin G and 50 μg/ml streptomycin, in an atmosphere of 95% air-5% CO2 at 37° C. Cells were seeded at a density of 5×10^4 cells/ml and cultured for 24 h. The cells were serum-starved in 0.1% FBS in MEM for 36 h to synchronize the cell cycle into G0 phase. The cells were treated with various concentrations of the test compound or distilled water (as a control) for 1 h, followed, by addition of MTS assay buffer for toxicity studies or 12-O-tetradecanoylphorbol-13-acetate (TPA) or epidermal growth factor (EGF at 10-20 ng/ml) to determine AP-1 activation. Some cells were used for cell transformation assays as described below. For human phenotype expression assays, human colon HCT116, human lung cancer HT460, human skin melanoma SK-MEL-28 or human ovarian SK-OV3 cells were cultured in their respective medium and harvested for soft agar assays.
(§2) Anchorage-independent transfornation assay: Inhibition of test compounds on TPA or EGF-induced cell transformation or human tumor phenotype expression was investigated under anchorage independent conditions. Samples of 1×10^4 cells were exposed to TPA (20 ng/ml) or EGF (20 ng/ml) with or without different concentrations of test compound inl ml 0.33% basal medium Eagle (BME) agar containing 10% FBS over 3.5 ml 0.5% BME agar medium containing 10% FBS. Gingerol was dissolved in 100% ethanol. Ethanol was used in the control group for comparison. The cultures were maintained in a 37° C., 5% CO2 incubator for 14-21 days and the cell colonies were scored by a computerized program integrated with a light microscope. Human tumor cells were treated in a similar manner but no EGF or TPA was needed.

[1] = tested on: HCT116 colon cancer cells; assay: Soft agar colony formation / human tumor phenotype expression; type: cell-based
Experimental: as §1, §2

HT460 lung cancer cells = assay: as above; type: cell-based; settings: for Effect against human lung cancer cells, colony formation (figure statement, in words): concentration not given
Experimental: as §1, §2

[2] = tested on: SK-MEL-28 skin cancer cells; assay: as above; type: cell-based
Experimental: as §1, §2

[3] = tested on: SK-OV-3 ovarian cancer cells; assay: as above; type: cell-based
Experimental: as §1, §2

[4] = tested on: skin cancer induced by UVA exposure in hairless mice; assay: UVA-induced skin tumors in SKh-1 hairless mice, topical treatment; type: in vivo; settings: day 84, 30 micrograms per mouse on tumors, 5 days a week, day 21 to 53
Experimental: Twenty SKh-1 hairless mice were exposed to UVA to induce skin tumor formation. […] Rubescensin J was dissolved in DMSO and then brought up to volume in acetone. The two groups. of mice were treated with rubescensin J in acetone, and acetone alone, respectively. […] Five days a week, each mouse received a total of 30 micrograms applied directly on tumor(s) in a volume of 250 microliters. The compound was made fresh each day. Tumor numbers and sizes were monitored and recorded periodically.
Initial measurements were taken on day 1, 14 and 20, and the first treatment was applied on day 21. The experimental group of mice were treated with the compound 5 days a week until the compound was depleted on day 53. Measurement #1 through to #11 were made on day 14, 20, 24, 28, 32, 36, 39, 43, 51, 53, and 84. The numbers of tumor papillomas and the tumor volumes are expressed as a percentage of the number of papillomas and tumor volume on day 1.

[5] = tested on: JB6 C141 mouse skin cells; assay: MTS toxicity (cell proliferation) assay; type: cell-based; settings: 50 μM
Experimental: as §1, with “For human phenotype expression assays, human colon HCT116, human lung cancer HT460, human skin melanoma SK-MEL-28 or human ovarian SK-OV3 cells were cultured in their respective medium and harvested for soft agar assays.” left out
Cell Proliferation Assay (MTS Assay): Cell proliferation was analyzed using the CELLTITER 96® AQueous One Solution Cell Proliferation Assay (Promega, Madison, Wis.) following the instructions provided. […] Then the absorbance of a colored formazan product catalyzed by dehydrogenase enzymes in metabolically active cells was recorded at 492 nm with 690 nm as a background. Data were expressed as the percentage of absorbance of untreated control cells.

[6] = Homo sapiens, 25 μM, read-out: % Inhibition: HT 460 Lung Cancer

## C=C1[C@@H](O)[C@@]23C(CC[C@@H]1[C@H]2O)[C@]12CCCC(C)(C)C1[C@H](O)[C@]3(O)OC2=O (stereo partly drawn) [Rabdoternin A]
JB6 C141 cells; 25 μM
  Inhibition of neoplastic transformation in JB6 cell (in words): completely inhibits
  Prevention of neoplastic cell transformation, EGF, soft agar (figure statement, in words): prevented neoplastic cell transformation
JB6 C141 cells; Mus musculus, 25 μM
  inhibition at 25 µM: 100%
[1]; 25 μM
  Inhibition of HCT116 colon cancer cell growth (in words): completely inhibited
[1]; Homo sapiens, HCT-116, 25 μM
  inhibition at 25 µM: 100%
[1]; concentration not given
  Decreasing colony formation, human colon cancer cells (figure statement, in words): particularly effective
HT460 lung cancer cells; 25 μM
  Inhibition of HT460 lung cancer cell growth (in words): moderately inhibited
HT460 lung cancer cells; [6]
  inhibition at 25 µM: 10%
HT460 lung cancer cells
  Effect against human lung cancer cells, colony formation (figure statement, in words): moderate inhibitory effect
[2]; 15 μM
  Inhibition of SK-MEL-28 skin cancer cell growth (in words): completely inhibits
[2]; Homo sapiens, SK-MEL-28, 25 μM
  inhibition at 25 µM: 100%
[2]; concentration not given
  Effect against human skin melanoma cells, colony formation (figure statement, in words): particularly effective

## C=C1[C@@H](O)[C@@]23C(CC[C@@H]1[C@H]2O)[C@@]12C(=O)O[C@@]3(O)[C@@H](O)C1C(C)(C)CC[C@@H]2O (stereo partly drawn) [Rabdoternin B]
JB6 C141 cells; 75 μM
  Inhibition of neoplastic transformation in JB6 cell (in words): completely inhibits
  Prevention of neoplastic cell transformation, EGF, soft agar (figure statement, in words): prevented neoplastic cell transformation
JB6 C141 cells; Mus musculus, 75 μM
  inhibition at 75 µM: 100%
[1]; 50 μM
  Inhibition of HCT116 colon cancer cell growth (in words): completely inhibited
[1]; Homo sapiens, HCT-116, 50 μM
  inhibition at 50 µM: 100%
[1]; concentration not given
  Decreasing colony formation, human colon cancer cells (figure statement, in words): particularly effective
HT460 lung cancer cells; Homo sapiens, 35 μM, read-out: % Inhibition: HT 460 Lung Cancer
  inhibition at 35 µM: 0%
[2]; Homo sapiens, SK-MEL-28, 35 μM
  inhibition at 35 µM: 0%

## C=C1[C@@H](OC(C)=O)[C@]23[C@H](O)[C@H]1CC[C@H]2[C@]12CCCC(C)(C)[C@H]1[C@H](OC(C)=O)[C@]3(O)OC2 [Rabdoternin C]
JB6 C141 cells; 10 μM
  Prevention of neoplastic cell transformation, EGF, soft agar (FIG. 21): 50%
JB6 C141 cells; 100 μM
  Inhibition of neoplastic transformation in JB6 cell (in words): completely inhibits
JB6 C141 cells; text b465: 50% at 10 μM
  % Inhibition: Neoplastic Transformation in JB6 Cells: 50%
[1]; 100 μM
  % Inhibition: HCT116 Colon Cancer Cells: 68%
  Inhibition of HCT116 colon cancer cell growth (in words): significantly inhibited
[1]; concentration not given
  Decreasing colony formation, human colon cancer cells (figure statement, in words): particularly effective
HT460 lung cancer cells; 100 μM
  % Inhibition: HT 460 Lung Cancer: 14%
  Inhibition of HT460 lung cancer cell growth (in words): moderately inhibited
HT460 lung cancer cells
  Effect against human lung cancer cells, colony formation (figure statement, in words): some inhibitory effect
[2]; 100 μM
  % Inhibition: SK-MEL-28 Skin Cancer: 5-10%
  Inhibition of SK-MEL-28 skin cancer cell growth (in words): moderately inhibited
[2]; concentration not given
  Effect against human skin melanoma cells, colony formation (figure statement, in words): some inhibitory effect

## CC1(C)CC[C@H](O)[C@]23CO[C@@](O)([C@@H](O)C12)[C@]12C(=O)[C@@]4(CO4)[C@H](CCC31)[C@H]2O (stereo partly drawn) [Rubescensin J, 1α, 6β, 7β, 14β-tetrohydroxy-7α,20-epoxy-ent-kaur-16,17-exo-epoxide-15-one]
JB6 C141 cells; 25 μM
  Prevention of neoplastic cell transformation, EGF, soft agar (figure statement, in words): prevented neoplastic cell transformation
JB6 C141 cells; 40 μM
  Inhibition of neoplastic transformation in JB6 cell (in words): completely inhibits
JB6 C141 cells; 20-40 μM
  % Inhibition: Neoplastic Transformation in JB6 Cells: 83-100 (20-40 μM) %
[1]; 10 μM
  Decreasing colony formation, human colon cancer cells (figure statement, in words): particularly effective
[1]; 20 μM
  Inhibition of HCT116 colon cancer cell growth (in words): completely inhibits
[1]; Homo sapiens, HCT-116, 20 μM
  inhibition at 20 µM: 100%
HT460 lung cancer cells; 20 μM
  Inhibition of HT460 lung cancer cell growth (in words): moderately inhibits
HT460 lung cancer cells; Homo sapiens, 20 μM, read-out: % Inhibition: HT 460 Lung Cancer
  inhibition at 20 µM: 20%
HT460 lung cancer cells
  Effect against human lung cancer cells, colony formation (figure statement, in words): moderate inhibitory effect
[2]; 20 μM
  Effect against human skin melanoma cells, colony formation (figure statement, in words): particularly effective
  Inhibition of SK-MEL-28 skin cancer cell growth (in words): significantly inhibits
[2]; Homo sapiens, SK-MEL-28, 20 μM
  inhibition at 20 µM: 50%
[3]; 20 μM
  Inhibition of SK-OV-3 ovarian cancer cell growth (in words): moderately inhibits
[3]; Homo sapiens, SK-OV-3, 20 μM
  inhibition at 20 µM: 15%
[3]; concentration not given
  Effect against human ovarian cancer cells, colony formation (figure statement, in words): moderate inhibitory effect
[4]; untreated group about 90%
  Number of tumor papillomas as percentage of the number on day 1: ~50%
[4]; untreated group about 120%
  Tumor volume as percentage of the volume on day 1: about 60%

## CC1OC(OC2C(O)C(CO)OC(OCCc3ccc(OC(=O)/C=C/c4ccc(O)c(O)c4)c(O)c3)C2O)C(O)C(O)C1O (stereo not drawn) [Rubscendepside]
[5]
  Toxicity evaluation with MTS assay (in words): no Rubscendepside toxicity
JB6 C141 cells; 25 μM
  Prevention of neoplastic cell transformation, EGF, soft agar (figure statement, in words): prevented neoplastic cell transformation
JB6 C141 cells; 50 μM
  Inhibition of neoplastic transformation in JB6 cell (in words): completely inhibits
JB6 C141 cells; 20-50 μM
  % Inhibition: Neoplastic Transformation in JB6 Cells: 80-100 (20-50 μM) %
[1]; 15 μM
  Inhibition of HCT116 colon cancer cell growth (in words): significantly inhibits
[1]; Homo sapiens, HCT-116, 15 μM
  inhibition at 15 µM: 60%
[1]; concentration not given
  Decreasing colony formation, human colon cancer cells (figure statement, in words): particularly effective
HT460 lung cancer cells; 25 μM
  Inhibition of HT460 lung cancer cell growth (in words): moderately inhibits
HT460 lung cancer cells; [6]
  inhibition at 25 µM: 37%
HT460 lung cancer cells
  Effect against human lung cancer cells, colony formation (figure statement, in words): moderate inhibitory effect
[2]; 25 μM
  Inhibition of SK-MEL-28 skin cancer cell growth (in words): moderately inhibits
[2]; Homo sapiens, SK-MEL-28, 25 μM
  inhibition at 25 µM: 36%
[2]; concentration not given
  Effect against human skin melanoma cells, colony formation (figure statement, in words): moderate inhibitory effect

## Rubescensin M
JB6 C141 cells; 100 μM
  Inhibition of neoplastic transformation in JB6 cell (in words): almost completely inhibits
  Prevention of neoplastic cell transformation, EGF, soft agar (figure statement, in words): prevented neoplastic cell transformation
JB6 C141 cells; text b462: 100 μM
  % Inhibition: Neoplastic Transformation in JB6 Cells: 90%
[1]; 75 μM
  % Inhibition: HCT116 Colon Cancer Cells: 90%
[1]; concentration not given
  Decreasing colony formation, human colon cancer cells (figure statement, in words): particularly effective
HT460 lung cancer cells; 75 μM
  % Inhibition: HT 460 Lung Cancer: 73%
HT460 lung cancer cells
  Effect against human lung cancer cells, colony formation (figure statement, in words): moderate inhibitory effect
[2]; 50 μM
  % Inhibition: SK-MEL-28 Skin Cancer: 100%
  Inhibition of SK-MEL-28 skin cancer cell growth (in words): completely inhibited
[2]; concentration not given
  Effect against human skin melanoma cells, colony formation (figure statement, in words): particularly effective
